For data set [1] the following is noted: animal models; cited from earlier work.
For data set [2] the following is noted: cited from earlier work.
The nature of data set [3]: Personal experience of capsaicin use. Conditions: humans. Format: in vivo.
The conditions of data set [4]: cited from earlier work. This is another data set of the same source.

Take `COc1cc(CNC(=O)CCCC/C=C/C(C)C)ccc1O` [Capsaicin]: in data set [1], the endurance capacity entry is recorded as “increase endurance capacity” and the lipolysis entry is “promote lipolysis”. Moreover, the solubility in water result in data set [2] is “only slightly soluble in water”. Further, the “effects of use on energy, exercise capacity, endurance, mood, appetite, alertness” value in data set [3] is “boosts energy, increases exercise capacity, increases endurance, improves mood, decreases appetite and increases alertness”.
Consider `Cn1c(=O)c2c(ncn2C)n(C)c1=O` [caffeine], for which the “mean half-life in plasma” value in data set [4] (healthy individuals) is recorded as “about 5 hours”. In addition, in data set [4] (in vivo), the blood-brain barrier passage entry is reported as “readily crosses the blood-brain barrier”.
